# According to patent EP0630366B1, “SUBSTITUTED HETEROCYCLIC DERIVATIVES USEFUL AS PLATELET AGGREGATION INHIBITORS” (G.D. Searle & Co., priority 1991, dated 1993):
# System: collagen induced platelet aggregation
# Test: Inhibition of ex vivo collagen induced platelet aggregation after administration to dogs
# Assay type: in vivo, dogs (Beagles)
# Settings: after 24 hours, administered orally to dogs at a dose of 20 mg/kg
# Procedure: The purpose of this assay is to determine the effects of antiplatelet compounds on ex vivo collagen induced platelet aggregation when administered either intravenously or orally to dogs.
# Pretreatment (control) blood samples are drawn from either conscious or anesthetized dogs (Beagles) and centrifuged to prepare platelet rich plasma (PRP). Aggregatory response to collagen is measured in a aggregometer and used as Control. Compounds are administered, either intragasterically (either by capsule or stomach tube or intravenously). Blood samples are drawn at predetermined intervals after compound administration, PRP prepared and aggregation to collagen determined. Compound inhibition of aggregation is determined by comparing the aggregation response after compound administration to the pretreatment response. The study is continued for a maximum of 24 hours or until the platelet aggregation returns to control levels. (If aggregation is still inhibited after 7 hours, a blood sample is drawn the following morning and tested.) Duration of activity is determined by the length of time platelet aggregation is inhibited after compound administration.
row,Compound,inhibited platelet aggregation
1,"CCOC(=O)C[C@H](NC(=O)CCC(=O)Nc1ccc(C(=N)N)cc1)c1cccnc1 [Example 4, Ethyl βS-[[4-[[4-(aminoiminomethyl)phenyl]amino]-1,4-dioxobutyl]amino]-3-pyridinepropanoate]",up to 100%
2,"Ethyl-β-[[4-[[4-(aminoiminomethyl)phenyl] amino]-1,4-dioxobutyl]amino]-3-pyridinepropanoate [Example 1]",up to 100%
3,"β-[[4-[[4-(aminoiminomethyl)phenyl]amino]-1,4-dioxobutyl]amino]-2-furanpropanoic acid [Example 16]",up to 100%

# System: platelet aggregation
# Test: In-vitro platelet aggregation in PRP (ADP-induced)
# Assay type: cell-based, dogs
# Settings: Canis lupus familiaris; at 10^-5; dog platelet-rich plasma, ADP-induced aggregation; read-out: Dog PRP IC50 (cell prints inhibition at a single concentration)
# Procedure: Healthy male or female dogs were fasted for 8 hours prior to drawing blood; then 30 ml whole blood was collected using a butterfly needle and 30 cc plastic syringe with 3 ml of 0.129 M buffered sodium citrate (3.8%). The syringe was rotated carefully as blood was drawn to mix the citrate. Platelet-rich plasma (PRP) was prepared by centrifugation at 975 x g for 3.17 minutes at room temperature allowing the centrifuge to coast to a stop without braking. The PRP was removed from the blood with a plastic pipette and placed in a plastic capped, 50 mL Corning conical sterile centrifuge tube which was held at room temperature. Platelet poor plasma (PPP) was prepared by centrifuging the remaining blood at 2000 x g for 15 minutes at room temperature allowing the centrifuge to coast to a stop without braking. The PRP was adjusted with PPP to a count of 2-3 x 10^8 platelets per mL. 400 uL of the PRP preparation and 50 uL of the compounds solution to be tested or saline were preincubated for 1 minute at 37°C in a BioData, Horsham, PA). 50 uL of adenosine 5' diphosphate (ADP) (50 um final concentration) was added to the cuvettes and the aggregation was monitored for 1 minute. All compounds are tested in duplicate. Results are calculated as follows: Percent of control = [(maximal OD minus initial OD of compound) divided by (maximal OD minus initial OD of control saline)] x 100. The % inhibition = 100 - (percent of control).
# The compounds tested and their median inhibitory concentrations (IC50) are recorded in Table I. IC50's (dosage at which 50% of platelet aggregation is inhibited) were calculated by linear regression of the dose response curve.
row,Compound,inhibition at 10 µM [%]
1,N=C(N)c1ccc(NC(=O)C2CCCCC2C(=O)NC(CC(=O)O)c2cccnc2)cc1 (stereo not drawn) [Example 14],0

# Same assay, conditions: Canis lupus familiaris; dog platelet-rich plasma, ADP 50 um final concentration; IC50 by linear regression of the dose response curve
row,Compound,IC50 [µM]
1,"N=C(N)c1ccc(NC(=O)CCC(=O)NC(CC(=O)O)c2cccnc2)cc1 (racemic) [Example 2, D,L-β-[[4-[[4-(aminoiminomethyl)phenyl]amino]-1,4-dioxobutyl]amino]-3-pyridinepropanoic acid]",0.093
2,"N=C(N)c1ccc(NC(=O)C2CC2C(=O)NC(CC(=O)O)c2cccnc2)cc1 (single isomer, unassigned; isomer 2) [Example 27]",> 10
3,"N=C(N)c1ccc(NC(=O)CCC(=O)N[C@@H](CC(=O)O)c2cccnc2)cc1 [Example 5, βS-[[4-[[4-(aminoiminomethyl)phenyl]amino]-1,4-dioxobutyl]amino]-3-pyridinepropanoic acid]",0.047
4,N=C(N)c1ccc(NC(=O)CCC(=O)NC(CC(=O)O)c2ccccn2)cc1 (stereo not drawn) [Example 8],0.29
5,N=C(N)c1ccc(NC(=O)CCC(=O)NC(CC(=O)O)c2ccncc2)cc1 (stereo not drawn) [Example 10],0.16
6,"N=C(N)c1ccc(NC(=O)CCC(=O)NC(CC(=O)O)c2ccc3c(c2)OCO3)cc1 (stereo not drawn) [Example 20, β-[[4-[[4-(aminoiminomethyl)phenyl]amino]-1,4-dioxobutyl]amino]-1,3-benzodioxole-5-propanoic acid]",0.068
7,CCOC(=O)CC(NC(=O)CCC(=O)Nc1ccc(C(=N)N)cc1)c1cc2c(cc1[N+](=O)[O-])OCO2 (stereo not drawn) [Example 21],> 10
8,N=C(N)c1ccc(NC(=O)CCC(=O)NC(CC(=O)O)c2cncnc2)cc1 (stereo not drawn) [Example 22],0.059
9,N=C(N)c1ccc(NC(=O)CCC(=O)NC(CC(=O)O)c2cc3c(cc2[N+](=O)[O-])OCO3)cc1 (stereo not drawn) [Example 34],1.2

# Same assay, conditions: dog platelet-rich plasma, ADP 50 um final concentration; IC50 by linear regression of the dose response curve
row,Compound,IC50 [µM]
1,"(±) [[[4-[[4-(aminoiminomethyl)phenyl]-amino]-1,4-dioxo-(2E)-butenyl]amino]-3-pyridinepropanoic acid [Example 29]",0.11
2,"(±)-1[[[4-[[4-(aminoiminomethyl)phenyl]amino]-1,4-dioxo-(2Z)-butenyl]amino]-3-pyridinepropanoic acid [Example 30]",> 10
3,"Ethyl β-[[4-[[4-(aminoiminomethyl)phenyl]amino]1,4-dioxobutyl]amino]-1,3-benzodioxole-5-propanoate (isomer 1) [Example 31]",7.3
4,"Ethyl β-[[4-[[4-aminoiminomethyl) phenyl]amino]-1,4-dioxobutyl]amino]-1,3-benzodioxole-5-propanoate [Example 19]",> 10
5,"β-[[4-[[3-(aminoiminomethyl)phenyl]amino]-1,5-dioxopentyl]amino]-3-pyridinepropanoic acid [Example 3]",> 10
6,"β-[[4-[[4-(aminoiminomethyl)phenyl]amino]-1,4-dioxobutyl]amino]-1,3-benzodioxole-5-propanoic acid [Example 33]",6.8
7,"β-[[4-[[4-(aminoiminomethyl)phenyl]amino]-1,4-dioxobutyl]amino]-2-thiophenepropanoic acid [Example 18]",0.12
8,"βR-[[4-[[4-(aminoiminomethyl)phenyl]amino]-1,4-dioxobutyl]amino]-3-pyridinepropanoic acid [Example 7]",4.8
